Assay results published in the supplement of paper PMC10627819.

How the values were obtained:
Assay in all cases: Bliss interaction score (quartile over a dose matrix) (fitness difference); higher = more antagonism (negative = synergy)
S. aureus Newman = tested on: S. aureus Newman
Outline: (§1)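 Fitness was defined as normalised growth: OD595 at the start of stationary phase divided by the plate's robust no-drug mean and capped at 1. Single-drug fitness was inferred from combination measurements. The Bliss score is observed fitness minus the product of the single-drug values, summarised by quartiles across technical, biological and donor/recipient replicates.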

B. subtilis 168 = tested on: B. subtilis 168
Outline: as §1

S. pneumoniae D39V = tested on: S. pneumoniae D39V
Outline: as §1

S. aureus DSM 20231 = tested on: S. aureus DSM 20231
Outline: as §1
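Also: first quartile when negative (synergy) and third quartile when positive (antagonism).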

CO[C@@H]1[C@@H](OC(N)=O)[C@@H](O)[C@H](Oc2ccc3c(O)c(NC(=O)c4ccc(O)c(CC=C(C)C)c4)c(=O)oc3c2C)OC1(C)C [Novobiocin] + CCCCCCCCCC(=O)N[C@@H]1[C@H]([C@@H]([C@H](O[C@H]1OC2=C3C=C4C=C2OC5=C(C=C(C=C5)[C@H]([C@H]6C(=O)N[C@@H](C7=C(C(=CC(=C7)O)OC8[C@H]([C@H]([C@@H]([C@H](O8)CO)O)O)O)C9=C(C=CC(=C9)[C@H](C(=O)N6)NC(=O)[C@@H]4NC(=O)[C@@H]1C2=CC(=CC(=C2)OC2=C(C=CC(=C2)[C@H](C(=O)N[C@H](CC2=CC(=C(O3)C=C2)Cl)C(=O)N1)N)O)O)O)C(=O)O)O[C@H]1[C@@H]([C@H]([C@@H]([C@H](O1)CO)O)O)NC(=O)C)Cl)CO)O)O [Teicoplanin]
Bliss interaction score (S. aureus Newman; main component drawn): -0.234 | Bliss interaction score (B. subtilis 168; main component drawn): 0.127 | Bliss interaction score (S. pneumoniae D39V; main component drawn): 0.0574 | Bliss interaction score (S. aureus DSM 20231; main component drawn): -0.102

CO[C@@H]1[C@@H](OC(N)=O)[C@@H](O)[C@H](Oc2ccc3c(O)c(NC(=O)c4ccc(O)c(CC=C(C)C)c4)c(=O)oc3c2C)OC1(C)C [Novobiocin] + CC[C@H]1OC(=O)[C@H](C)C(=O)[C@H](C)[C@@H](O[C@@H]2O[C@H](C)C[C@H](N(C)C)[C@H]2O)[C@](C)(OC)C[C@@H](C)C(=O)[C@H](C)[C@H]2N(CCCCn3cnc(-c4cccnc4)c3)C(=O)O[C@]12C [Telithromycin]
Bliss interaction score (S. aureus Newman): -0.0192 | Bliss interaction score (B. subtilis 168): 0.0833 | Bliss interaction score (S. pneumoniae D39V): 0.0464 | Bliss interaction score (S. aureus DSM 20231): 0.0515

CO[C@@H]1[C@@H](OC(N)=O)[C@@H](O)[C@H](Oc2ccc3c(O)c(NC(=O)c4ccc(O)c(CC=C(C)C)c4)c(=O)oc3c2C)OC1(C)C [Novobiocin] + CN[C@H](CC(C)C)C(=O)N[C@H]1C(=O)N[C@@H](CC(N)=O)C(=O)N[C@H]2C(=O)N[C@H]3C(=O)N[C@H](C(=O)N[C@H](C(=O)O)c4cc(O)cc(O)c4-c4cc3ccc4O)[C@H](O)c3ccc(c(Cl)c3)Oc3cc2cc(c3O[C@@H]2O[C@H](CO)[C@@H](O)[C@H](O)[C@H]2O[C@H]2C[C@](C)(N)[C@H](O)[C@H](C)O2)Oc2ccc(cc2Cl)[C@H]1O [Vancomycin]
Bliss interaction score (S. aureus Newman): -0.0447 | Bliss interaction score (B. subtilis 168): 0.071 | Bliss interaction score (S. pneumoniae D39V): -0.133 | Bliss interaction score (S. aureus DSM 20231): -0.0386

CO[C@@H]1[C@@H](OC(N)=O)[C@@H](O)[C@H](Oc2ccc3c(O)c(NC(=O)c4ccc(O)c(CC=C(C)C)c4)c(=O)oc3c2C)OC1(C)C [Novobiocin] + CN[C@H](CC(C)C)C(=O)N[C@H]1C(=O)N[C@@H](CC(N)=O)C(=O)N[C@H]2C(=O)N[C@H]3C(=O)N[C@H](C(=O)N[C@H](C(=O)O)c4cc(O)cc(O)c4-c4cc3ccc4O)[C@H](O[C@H]3C[C@](C)(N)[C@@H](O)[C@H](C)O3)c3ccc(c(Cl)c3)Oc3cc2cc(c3O[C@@H]2O[C@H](CO)[C@@H](O)[C@H](O)[C@H]2O[C@H]2C[C@](C)(NCc3ccc(-c4ccc(Cl)cc4)cc3)[C@@H](O)[C@H](C)O2)Oc2ccc(cc2Cl)[C@H]1O [Oritavancin]
Bliss interaction score (S. aureus Newman): -0.0768 | Bliss interaction score (B. subtilis 168): -0.0421 | Bliss interaction score (S. pneumoniae D39V): 0.0403 | Bliss interaction score (S. aureus DSM 20231): -0.0612

CO[C@@H]1[C@@H](OC(N)=O)[C@@H](O)[C@H](Oc2ccc3c(O)c(NC(=O)c4ccc(O)c(CC=C(C)C)c4)c(=O)oc3c2C)OC1(C)C [Novobiocin] + CO[C@H]1/C=C/O[C@@]2(C)Oc3c(C)c(O)c4c(O)c(c(/C=N/N5CCN(C)CC5)c(O)c4c3C2=O)NC(=O)/C(C)=C\C=C\[C@H](C)[C@H](O)[C@@H](C)[C@@H](O)[C@@H](C)[C@H](OC(C)=O)[C@@H]1C [Rifampicin]
Bliss interaction score (S. aureus Newman): 0.0819 | Bliss interaction score (B. subtilis 168): 0.0681 | Bliss interaction score (S. pneumoniae D39V): 0.159 | Bliss interaction score (S. aureus DSM 20231): 0.0573

CO[C@@H]1[C@@H](OC(N)=O)[C@@H](O)[C@H](Oc2ccc3c(O)c(NC(=O)c4ccc(O)c(CC=C(C)C)c4)c(=O)oc3c2C)OC1(C)C [Novobiocin] + Cn1nnc(-c2ccc(-c3ccc(N4C[C@H](CO)OC4=O)cc3F)cn2)n1 [Tedizolid]
Bliss interaction score (S. aureus Newman): -0.0571 | Bliss interaction score (B. subtilis 168): 0.0533 | Bliss interaction score (S. pneumoniae D39V): -0.131 | Bliss interaction score (S. aureus DSM 20231): -0.0789

CO[C@@H]1[C@@H](OC(N)=O)[C@@H](O)[C@H](Oc2ccc3c(O)c(NC(=O)c4ccc(O)c(CC=C(C)C)c4)c(=O)oc3c2C)OC1(C)C [Novobiocin] + Oc1cc(Cl)ccc1Oc1ccc(Cl)cc1Cl [Triclosan]
Bliss interaction score (S. aureus Newman): -0.0304 | Bliss interaction score (B. subtilis 168): 0.0532 | Bliss interaction score (S. pneumoniae D39V): 0.177 | Bliss interaction score (S. aureus DSM 20231): 0.0686
